Test results: patent publication US20230329236A1, “HERBICIDAL PYRIMIDINE DERIVATIVES” (MoA Technology Limited, priority 2020, published 2023)

Assays:
Conditions in all cases: 336 h, Table 3, post-emergence, 14±1 days post application
[1] = tested on: Veronica persica (VERPE); assay: Post-emergence glasshouse test, visual injury, VERPE; format: in vivo
Description: (§1) Seeds of a variety of test species are grown in a sandy loam soil mixture, Lolium multiflorum (LOLMU), Amaranthus retroflexus (AMARE), Echinochloa crus-gaffi (ECHCG), Veronica persica (VERPE), Glycine max (GLXMA), Oryza sativa (ORYSA), Zea mays (ZEAMX), spring wheat (TRZAS), Ipomoea hederacea (IPOHE), Ipomoea purpurea (PHBPU), Stellaria media (STEME), Solanum nigrum (SOLNI), Digitaria sanguinalis (DIGSA), Setaria italica (SETIT), Alopecurus myosuroides (ALOMY) and Avena fatua (AVEFA).
(§2) After sowing, at growth stage BBCH 12-14 (post-emergence), the plants are sprayed with an aqueous spray solution derived from the formulation of the technical active ingredient in acetone/water (50:50) solution containing 0.5% Tween 20 (polyoxyethlyene sorbitan monolaureate, CAS RN 9005-64-5). The test compounds are applied at the required concentration of active ingredient in g/ha. The test plants are then grown in a glasshouse under controlled environmental conditions and watered regularly as required. After 14±1 days post application (for post-emergence test), the test is evaluated by assessing the percentage damage caused to the plants in comparison with the untreated plots. The biological activities for post-emergence testing are shown below (Table 3 and Table 4) as a % visual injury.

[2] = tested on: Lolium multiflorum (LOLMU); assay: Post-emergence glasshouse test, visual injury, LOLMU; format: in vivo
Description: as §1, §2

[3] = tested on: Echinochloa crus-gaffi (ECHCG); assay: Post-emergence glasshouse test, visual injury, ECHCG; format: in vivo, Echinochloa crus-galli
Description: as §1, §2

[4] = tested on: Amaranthus retroflexus (AMARE); assay: Post-emergence glasshouse test, visual injury, AMARE; format: in vivo
Description: as §1, §2

Compound	pest or weed control at 500 g/ha [1] [%]	pest or weed control at 500 g/ha [2] [%]	pest or weed control at 500 g/ha [3] [%]	pest or weed control at 500 g/ha [4] [%]	pest or weed control at 125 g/ha [1] [%]	pest or weed control at 125 g/ha [2] [%]	pest or weed control at 125 g/ha [3] [%]	pest or weed control at 125 g/ha [4] [%]	also measured
CCN1CCN(c2ncc(-c3cc(C)no3)c(C(C)C)n2)CC1 [Compound 63]	0	30	50	70	–	–	–	–	–
Cc1cc(-c2cnc(N3CCC(C(N)=O)CC3)nc2C2CC2)on1 [Compound 64]	0	30	60	60	–	–	–	–	–
Cc1cc(-c2cnc(N3CCC(C(N)=O)CC3)nc2-c2ccc(C)s2)on1 [Compound 88]	–	–	–	–	0	0	20	20	–
CC(C)c1nc(NC2CCCC2)ncc1-c1cncs1 [Compound 124]	–	–	–	–	–	–	–	–	pest or weed control at 62 g/ha [1]: 0%; pest or weed control at 62 g/ha [2]: 0%; pest or weed control at 62 g/ha [3]: 0%; pest or weed control at 62 g/ha [4]: 10%
Cc1cc(-c2cnc(NC3CCC3)nc2C2CC2)on1 [Compound 12]	–	–	–	–	–	–	–	–	pest or weed control at 250 g/ha [1]: 100%; pest or weed control at 250 g/ha [2]: 30%; pest or weed control at 250 g/ha [3]: 90%; pest or weed control at 250 g/ha [4]: 100%
Cc1cc(-c2cnc(NC3CCCC3)nc2C(F)F)on1 [Compound 119]	–	–	–	–	0	0	0	50	–
Cc1cc(-c2cnc(N3CCCCC3)nc2C(C)C)on1 [Compound 56]	0	10	0	70	–	–	–	–	–
Cc1cc(-c2cnc(NCc3cccc(F)c3)nc2C(F)(F)F)on1 [Compound 126]	–	–	–	–	100	0	70	95	–
Cc1cc(-c2cnc(N3CCN(c4ncccn4)CC3)nc2C(C)(C)C)on1 [Compound 61]	0	0	0	60	–	–	–	–	–
Cc1cc(-c2cnc(NC3CCOCC3)nc2C(C)C)on1 [Compound 6]	–	–	–	–	90	50	90	60	pest or weed control at 250 g/ha [1]: 100%; pest or weed control at 250 g/ha [2]: 20%; pest or weed control at 250 g/ha [3]: 98%; pest or weed control at 250 g/ha [4]: 100%
Cc1cc(-c2cnc(NCCN3CCCC3=O)nc2C2CC2)on1 [Compound 30]	0	0	70	60	–	–	–	–	–
Cc1cc(-c2cnc(N3CCC(O)C(C)C3)nc2C2CC2)on1 (stereo not drawn) [Compound 60]	60	70	30	60	–	–	–	–	–
CCN(CC)c1ncc(-c2cc(C)no2)c(C(C)C)n1 [Compound 10]	–	–	–	–	–	–	–	–	pest or weed control at 250 g/ha [1]: 0%; pest or weed control at 250 g/ha [2]: 0%; pest or weed control at 250 g/ha [3]: 30%; pest or weed control at 250 g/ha [4]: 0%
Cc1cc(-c2cnc(NCC3CCCO3)nc2-c2ccc(C)o2)on1 (stereo not drawn) [Compound 86]	–	–	–	–	–	–	–	–	pest or weed control at 1000 g/ha ([1]; 1000 g/ha): 70%; pest or weed control at 1000 g/ha ([2]; 1000 g/ha): 0%; pest or weed control at 1000 g/ha ([3]; 1000 g/ha): 0%; pest or weed control at 1000 g/ha ([4]; 1000 g/ha): 0%
COc1ccc(CCNc2ncc(-c3cc(C)no3)c(C(C)C)n2)cc1OC [Compound 34]	100	30	80	70	–	–	–	–	–
Cc1cc(-c2cnc(NCCN3CCCC3=O)nc2C(C)C)on1 [Compound 42]	60	10	50	70	–	–	–	–	–
Cc1cc(-c2cnc(NC3CCCC3)nc2-c2ccc(C)o2)on1 [Compound 24]	0	0	70	50	–	–	–	–	–
CCc1nc(NCc2ccc(F)cc2)ncc1-c1cc(C)no1 [Compound 106]	–	–	–	–	95	0	30	90	–
COc1ccc(CNc2ncc(-c3cc(C)no3)c(C3CC3)n2)cc1OC [Compound 52]	70	40	70	80	–	–	–	–	–

Compound	pest or weed control at 500 g/ha [1] [%]	pest or weed control at 500 g/ha [2] [%]	pest or weed control at 500 g/ha [3] [%]	pest or weed control at 500 g/ha [4] [%]	pest or weed control at 125 g/ha [1] [%]	pest or weed control at 125 g/ha [2] [%]	pest or weed control at 125 g/ha [3] [%]	pest or weed control at 125 g/ha [4] [%]	also measured
Cc1cc(-c2cnc(NC3CCCC3)nc2C)on1 [Compound 92]	–	–	–	–	70	60	50	90	–
Cc1cc(-c2cnc(N(C)C3CCCC3)nc2C(F)(F)F)on1 [Compound 112]	–	–	–	–	0	20	0	20	–
Cc1cc(-c2cnc(N3CCOCC3)nc2-c2ccc(C)o2)on1 [Compound 72]	0	0	30	90	–	–	–	–	–
Cc1cc(-c2cnc(NC3CCc4sc(Cl)cc43)nc2C(C)C)on1 (stereo not drawn) [Compound 4]	–	–	–	–	98	0	50	95	–
Cc1cc(-c2cnc(NCc3cccc(C#N)c3)nc2C(C)C)on1 [Compound 97]	–	–	–	–	–	–	–	–	pest or weed control at 62 g/ha [1]: 70%; pest or weed control at 62 g/ha [2]: 20%; pest or weed control at 62 g/ha [3]: 70%; pest or weed control at 62 g/ha [4]: 50%
Cc1cc(-c2cnc(NCc3ccc(F)cc3)nc2C)on1 [Compound 128]	–	–	–	–	95	30	30	95	–
CC(=O)N1CCN(c2ncc(-c3cc(C)no3)c(-c3ccncc3)n2)CC1 [Compound 59]	90	50	0	0	–	–	–	–	–
CC(=O)N1CCN(c2ncc(-c3cc(C)no3)c(C3CC3)n2)CC1 [Compound 50]	0	0	50	60	–	–	–	–	–
Cc1cc(-c2cnc(NCc3ccncc3F)nc2C(C)C)on1 [Compound 95]	–	–	–	–	–	–	–	–	pest or weed control at 62 g/ha [1]: 60%; pest or weed control at 62 g/ha [2]: 30%; pest or weed control at 62 g/ha [3]: 60%; pest or weed control at 62 g/ha [4]: 30%
Cc1ccc(CNc2ncc(-c3cc(C)no3)c(C(C)C)n2)cc1 [Compound 100]	–	–	–	–	–	–	–	–	pest or weed control at 62 g/ha [1]: 95%; pest or weed control at 62 g/ha [2]: 0%; pest or weed control at 62 g/ha [3]: 80%; pest or weed control at 62 g/ha [4]: 80%
Cc1cc(-c2cnc(NC3CCCC3)nc2C2CC2)on1 [Compound 13, N-cyclopentyl-4-cyclopropyl-5-(3-methyl-1,2-oxazol-5-yl)pyrimidin-2-amine]	–	–	–	–	70	40	80	80	pest or weed control at 250 g/ha [1]: 100%; pest or weed control at 250 g/ha [2]: 80%; pest or weed control at 250 g/ha [3]: 100%; pest or weed control at 250 g/ha [4]: 100%
Cc1cc(-c2cnc(N3CCN(S(=O)(=O)N(C)C)CC3)nc2C2CC2)on1 [Compound 53]	0	20	50	20	–	–	–	–	–
CCc1nc(NC2CCCC2)ncc1-c1cc(C)no1 [Compound 103]	–	–	–	–	60	20	30	70	–
COCCCNc1ncc(-c2cc(C)no2)c(-c2ccc(C)o2)n1 [Compound 27]	50	0	20	70	–	–	–	–	–
Cc1cc(-c2cnc(NC3CCCC3)nc2C(F)(F)F)on1 [Compound 91]	–	–	–	–	99	80	95	90	–
Cc1cc(-c2cnc(NCc3ccccc3)nc2C(C)C)on1 [Compound 94]	–	–	–	–	–	–	–	–	pest or weed control at 62 g/ha [1]: 0%; pest or weed control at 62 g/ha [2]: 10%; pest or weed control at 62 g/ha [3]: 80%; pest or weed control at 62 g/ha [4]: 60%
Cc1cc(-c2cnc(NC3CCOCC3)nc2C(F)(F)F)on1 [Compound 116]	–	–	–	–	95	0	0	0	–
COCCNc1ncc(-c2cc(C)no2)c(-c2ccncc2)n1 [Compound 66]	70	60	20	70	–	–	–	–	–
